{"source": "patent US7628987B2", "about": "“Vectors derived from antibodies for transferring substances into cells” (Institut Pasteur, priority 1997, dated 2009)", "key": {"[1]": {"system": "CCL39 cells", "assay_type": "cell-based, hamster", "details": "CCL39, complete medium, no auxiliary agent", "description": "CCL39 cells (hamster fibroblasts) (5×10^4 cells) were placed in 24 well culture plates for 18 hours before transfection in MEM+10% FCS (foetal calf serum) culture medium. Transfections were carried out in MEM+10% FCS with no other auxiliary agent (CHLOROQUINE). The peptide-PL and free polylysine PL (corresponding to 19 lysines) were complexed with the pCMVLUC plasmid (respectively 24 μg and 70 μg per 6 μg of plasmid) for 30 minutes. The complex was then added dropwise to the CCL39. After incubating for 5 hours, the medium was replaced with fresh medium. Luciferase expression was assayed 24 hours later. The cells were washed twice with PBS. After washing, the cells were lysed with 100 μl of lyse buffer (PROMEGA) for 10-15 minutes. The cells were then centrifuged for 7 minutes at 4° C. to remove cellular debris. 20 μl of this lysate was mixed with 100 μl of luciferase buffer (PROMEGA). The relative luciferase units (RLU) were recorded on a LUMAT LB9501 (BERTHOLD). The protein concentration was determined using a BIORAD PROTEIN ASSAY-1 kit and the amount of luciferase in each sample was normalised per mg of protein, each transfection being carried out three times."}, "[2]": {"system": "CMV Ad169 strain", "assay": "Inhibition of cytomegalovirus (CMV) replication (morphology, plaque counting, Western blot)", "assay_type": "cell-based"}, "[3]": {"system": "HSV-1 TK^− virus", "assay": "microbe, parasite or virus in culture", "assay_type": "cell-based, Herpes Virus Simplex type I", "details": "HSV1 TK^−"}, "[4]": {"system": "HSV-1 TK^+ virus", "assay": "microbe, parasite or virus in culture", "assay_type": "cell-based, Herpes Virus Simplex type I", "details": "HSV1 TK^+"}, "[5]": {"system": "PV1/Sabin", "assay_type": "cell-based, polio virus type 1"}, "[6]": {"system": "PV1/Mahoney", "assay_type": "cell-based, polio virus type 1", "details": "peptide 25 μg/ml, day 5"}, "[7]": {"system": "3T3 cells"}, "[8]": {"system": "PtK2 fibroblasts", "assay": "Study of the penetration of biotinylated polypeptides into cells (peroxidase coloration)", "assay_type": "cell-based", "details": "after 1 hour of culture, biotinylated polypeptide 5-20 μg/ml", "description": "Cultured PtK2 fibroblasts seeded the day before in an amount of 5×10^4 cells per well onto glass sheets, are incubated at 37° C., 1-18 hours in complete RPMI 1640 culture medium (or DMEM) (10% foetal calf serum, 2 mM L-glutamine and 1 mM of sodium pyruvate) containing a biotinylated polypeptide of the invention (5-20 μg/ml) The cells were then washed with PBS and fixed with 2% of p-formaldehyde at 4° C. for 10 minutes then washed with PBS. The cells were then incubated with a solution of streptavidin conjugated with 5 μg/ml of peroxidase in PBS for 30 minutes, then washed with PBS and incubated in the peroxidase cytochemical substrate (diaminobenzidine+H2O2). After washing, the cells were examined microscopically."}, "[9]": {"system": "cells in culture", "assay": "Cell penetration of polypeptide-streptavidin vectors coupled to enzymes", "details": "2 hours of culture, complete culture medium"}, "[10]": {"details": "Day 1, cells pretreated with 25 μg/ml"}, "[11]": {"details": "Day 4, cells pretreated with 25 μg/ml"}, "[12]": {"details": "PV1/Sabin, peptide 25 μg/ml, day 5"}}, "note": "Where “and” joins values, the source holds several entries; their conditions need not be identical. Identical values can stand only once. No end group written: not given here.", "data": [{"substance": "KKKKKKKKKKKKKKKKKKKVAYISRGGVSTYYSDTVKGRFTRQKYNKRA [K19pF4-1]", "values": [{"measurement": "transfection efficacy relative to polylysine alone", "setting": "[1]", "result": "about 1000 times"}, {"measurement": "transfection efficacy (luciferase)", "setting": "[1]; 24 μg peptide per 6 μg pCMVLUC, 5 h incubation", "result": "2×10^6 RLU/mg of proteins"}, {"measurement": "inhibition of infection of cells by CMV", "setting": "[2]", "result": "~100", "unit": "%"}, {"measurement": "NUMBER OF PLAQUES FORMED, Mean", "setting": "[2]; [10]", "result": 100.0}, {"measurement": "NUMBER OF PLAQUES FORMED, individual determinations", "setting": "[2]; [10]", "result": "100 and 125 and 75"}, {"measurement": "% reduct'n of plaques formed", "setting": "[2]; [11]", "result": 99.5, "unit": "%"}, {"measurement": "NUMBER OF PLAQUES FORMED, Mean", "setting": "[2]; [11]", "result": 166.7}, {"measurement": "NUMBER OF PLAQUES FORMED, individual determinations", "setting": "[2]; [11]", "result": "0 and 250 (2×)"}, {"measurement": "action on CMV proteins (Western blot)", "setting": "[2]; added to cells after viral adsorption", "result": "had no action"}, {"measurement": "inhibition of virus replication", "setting": "[2]; cells treated before, and at the same time, as viral infection", "result": 99.5, "unit": "%"}, {"measurement": "cytopathogenic effects (morphology)", "setting": "[2]; treated at the end of / after viral adsorption", "result": "large"}, {"measurement": "appearance of CMV proteins (Western blot)", "setting": "[2]; treated at the same time as viral infection", "result": "no appearance of late proteins was noted"}, {"measurement": "cytopathogenic effects (morphology)", "setting": "[2]; treated before or at the same time as the viral infection", "result": "displayed no morphological modifications"}, {"measurement": "appearance of CMV proteins (Western blot)", "setting": "[2]; treated before viral infection", "result": "the appearance of neither early proteins nor late proteins of the CMV was noted"}, {"measurement": "CPE inhibition (AI)", "setting": "[3]; added H0, 5 μ/well", "result": 15}, {"measurement": "CPE inhibition (AI)", "setting": "[3]; added H0, 10 μ/well", "result": 25}, {"measurement": "CPE inhibition (AI)", "setting": "[3]; added H0, 20 μ/well", "result": 42}, {"measurement": "CPE inhibition (AI)", "setting": "[3]; added H + 1, 5 μ/well", "result": 1}, {"measurement": "CPE inhibition (AI)", "setting": "[3]; added H + 1, 10 μ/well", "result": 13}, {"measurement": "CPE inhibition (AI)", "setting": "[3]; added H + 1, 20 μ/well", "result": 1}, {"measurement": "CPE inhibition (AI)", "setting": "[3]; added H − 1, 5 μ/well", "result": 25}, {"measurement": "CPE inhibition (AI)", "setting": "[3]; added H − 1, 10 μ/well", "result": 7}, {"measurement": "CPE inhibition (AI)", "setting": "[3]; added H − 1, 20 μ/well", "result": 47}, {"measurement": "CPE inhibition (AI)", "setting": "[3]; added H − 2, 5 μ/well", "result": 21}, {"measurement": "CPE inhibition (AI)", "setting": "[3]; added H − 2, 10 μ/well", "result": 5}, {"measurement": "CPE inhibition (AI)", "setting": "[3]; added H − 2, 20 μ/well", "result": 25}, {"measurement": "CPE inhibition (AI)", "setting": "[4]; added H0, 5 μ/well", "result": 13}, {"measurement": "CPE inhibition (AI)", "setting": "[4]; added H0, 10 μ/well", "result": 30}, {"measurement": "CPE inhibition (AI)", "setting": "[4]; added H0, 20 μ/well", "result": 28}, {"measurement": "CPE inhibition (AI)", "setting": "[4]; added H + 1, 5 μ/well", "result": 10}, {"measurement": "CPE inhibition (AI)", "setting": "[4]; added H + 1, 10 μ/well", "result": 12}, {"measurement": "CPE inhibition (AI)", "setting": "[4]; added H + 1, 20 μ/well", "result": 10}, {"measurement": "CPE inhibition (AI)", "setting": "[4]; added H − 1, 5 μ/well", "result": 13}, {"measurement": "CPE inhibition (AI)", "setting": "[4]; added H − 1, 10 μ/well", "result": 30}, {"measurement": "CPE inhibition (AI)", "setting": "[4]; added H − 1, 20 μ/well", "result": 28}, {"measurement": "CPE inhibition (AI)", "setting": "[4]; added H − 2, 5 μ/well", "result": 1}, {"measurement": "CPE inhibition (AI)", "setting": "[4]; added H − 2, 10 μ/well", "result": 2}, {"measurement": "CPE inhibition (AI)", "setting": "[4]; added H − 2, 20 μ/well", "result": 7}, {"measurement": "inhibiting effect on type 1 polio virus replication", "setting": "[5]", "result": "more than 30 factor"}, {"measurement": "LOG (TITER/ML)", "setting": "[5]; [12]", "result": 8}, {"measurement": "TITER REDUCTION FACTOR", "setting": "[5]; [12]", "result": 32}, {"measurement": "LOG (TITER/ML)", "setting": "[6]", "result": 8.75}, {"measurement": "TITER REDUCTION FACTOR", "setting": "[6]", "result": 8}, {"measurement": "toxicity of the polyplex", "setting": "[7]", "result": "did not induce any toxicity"}, {"measurement": "increase of transfection after 24 h with respect to 5 h30", "setting": "[7]; 3T3, charge ratio R 4.4", "result": "about 1.3 factor"}, {"measurement": "luciferase activity", "setting": "[7]; 3T3, charge ratio R 4.4, incubating for 5 h30", "result": "2-3×10^7 RLU/mg of protein"}]}, {"substance": "VAYISRGGVSTYYSDTVKGRFTRQKYNKRA [pF4.1]", "values": [{"measurement": "penetration into cells (peroxidase coloration)", "setting": "[8]", "result": "penetrated massively and rapidly into the cells"}]}, {"substance": "streptavidin: control protein in native form", "values": [{"measurement": "intracellular detection of the coupled enzymes", "setting": "[9]", "result": "no intracellular coloration was observed"}]}]}
